From patent publication US4877807A, “5-phenyl-1,2,3a,4,5,9b-hexahydro-3H-benz(e)indotes preparation and use thereof as drugs” (BASF Aktiengesellschaft, priority 1987, dated 1989)
Counter-ions that a name gives are not always drawn.

Legend:
[1] = tested on: reserpine-inducd hypothermia in male mice (NMRI strain); assay: Inhibition of reserpine-induced hypothermia in mice (antidepressive action); type: in vivo; settings: oral; for effectiveness higher than that of imipramine, factor: ED 50 relative to imipramine; for ED50: Mus musculus, 60 minutes before reserpine 2.15 mg/kg s.c., dose inhibiting reserpine-induced hypothermia by 50%, read-out: Antidepressive action ED 50
Description: The antidepressive activity of the substances according to the invention was studied using the following model:
Antidepressant substances inhibit this hypothermic effect, the degree of inhibition depending on the dose. The test substances were administered orally 60 minutes before the reserpine was administered.
The dose which inhibits reserpine-inducd hypothermia by 50%, ie. ED 50, is determined from the linear regression between log dose (mg/kg) and the relative decrease in the hypothermic effect.

[2] = tested on: tonic spasms induced by electroshock in female mice (NMRI strain); assay: Inhibition of electroshock-induced tonic spasms in mice (anticonvulsive action); type: in vivo; settings: oral; for ED50: Mus musculus, 1 h, 60 minutes before electroshock, dose inhibiting tonic spasms in 50% of the animals, n/dose=8, read-out: Anticonvulsive action ED 50
Description: The anticonvulsive action was measured on female mice (NMRI strain) having a weight of 22-26 g. Tonic spasms were induced by electroshock via ear electrodes. Stimulus data: a series of square-wave pulses 4.64 ms in duration and 14.7 mA in amplitude; frequency 100 Hz; duration of series 0.2 sec.
The electroshock was administered 60 minutes after the oral administration of the test compounds, and the appearance of tonic spasms was counted. n/dose=8. The ratios between the effectiveness (% protected animals) and log dose were calculated by probit analysis. ED 50 is the dose which inhibits the tonic spsms in 50% of the animals.

| Compound | effectiveness higher than that of imipramine, factor [1] | ED50 [1] [mg/kg] | ED50 [2] [mg/kg] | anticonvulsive effectiveness compared with phenytoin (in words) [2] |
| --- | --- | --- | --- | --- |
| CN1CC[C@@H]2c3ccccc3[C@H](c3ccccc3)C[C@@H]21 (relative stereo) [Example 1, (±)-3aS(R),5S(R),9bR(S)-3-Methyl-5-phenyl-1,2,3a,4,5,9b-hexahydro-3H -benz[e]indole hydrochloride] | about 45 | 0.082 | 1.1 | equalled or substantially exceeded |
| CN1CC[C@H]2c3ccccc3[C@H](c3ccccc3)C[C@@H]21 (relative stereo) [Example 2, (±)-3aR(S),5R(S),9bR(S)-3-Methyl-5-phenyl-1,2,3a,4,5,9b-hexahydro-3H-benz[e]indole] |  | 5.01 |  |  |
| CCN1CC[C@@H]2c3ccccc3[C@H](c3ccccc3)C[C@@H]21 (relative stereo) [Example 5, (±)-3aS(R),5S(R),9bR(S)-3-ethyl-5-phenyl-1,2,3a,4,5,9b-hexahydro-3H-benz[e]indole hydrochloride] |  | 0.14 | ~100 |  |
| CCN1CC[C@H]2c3ccccc3[C@H](c3ccccc3)C[C@@H]21 (relative stereo) [Example 6, (±)-3aR(S),5R(S),9bR(S)-3-Ethyl-5-phenyl-1,2,3a,4,5,9b-hexahydro-3H-benz[e]indole hydrochloride] |  | 1.61 | 8.81 | equalled or substantially exceeded |
| CCCN1CC[C@@H]2c3ccccc3[C@H](c3ccccc3)C[C@@H]21 (relative stereo) [Example 7, (±)-3aS(R),5S(R),9bR(S)-3-n-propyl-5-phenyl-1,2,3a,4,5,9b-hexahydro-3H-benz[e]indole hydrochloride] |  | 0.26 | 11.9 |  |
| CN1CC[C@@H]2c3ccccc3[C@H](c3ccccc3)C[C@@H]21 [Example 4, (+)-3aS,5S,9bR-3-Methyl-5-phenyl-1,2,3a,4,5,9b-hexahydro-3H-benzo[e]indole] | about 45 | 0.087 | ~46.4 |  |
| CN(C)CCCN1c2ccccc2CCc2ccccc21 [imipramine, reference compound] |  | 3.82 |  |  |
| O=C1NC(=O)C(c2ccccc2)(c2ccccc2)N1 [phenytoin, reference compound] |  |  | 14.3 |  |
